Assay results from patent publication US8377974B2 (Millennium Pharmaceuticals, Inc., priority 2004, dated 2013).

Target: T1, human plasma protein factor Xa (Homo sapiens, UniProt P00742)
T1 construct: measure proteolytic activity of the enzyme (factor Xa); purchased Haematologic Technologies (Essex Junction, Vt.); host or cells: human plasma
Assay: Factor Xa IC50 determination: cleavage of paranitroanilide substrate S-2765 in 96-well plates
Format: biochemical
Details: fXa 1 nM, S-2765 100 μM, Tris buffered saline pH 7.4, room temperature
Summary of the method: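 Human plasma factor Xa (1 nM) preincubated 5 min at room temperature with inhibitor (0.01 nM–10 μM final) in Tris-buffered saline pH 7.4 with 5 mM CaCl2, 0.1% BSA, 5% DMSO. S-2765 at 100 μM final; hydrolysis at 405 nm over 2 min. IC50 from 4-parameter fit of initial velocities.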

T1 sequence (P00742 235-488 limits assumed): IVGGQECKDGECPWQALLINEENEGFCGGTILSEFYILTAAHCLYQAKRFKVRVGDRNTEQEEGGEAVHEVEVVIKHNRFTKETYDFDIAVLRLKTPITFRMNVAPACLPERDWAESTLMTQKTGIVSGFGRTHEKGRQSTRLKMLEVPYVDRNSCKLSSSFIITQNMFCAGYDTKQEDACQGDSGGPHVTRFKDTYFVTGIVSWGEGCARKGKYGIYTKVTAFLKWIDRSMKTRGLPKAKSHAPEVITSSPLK
T1 sequence (P00742 41-179 partner limits assumed): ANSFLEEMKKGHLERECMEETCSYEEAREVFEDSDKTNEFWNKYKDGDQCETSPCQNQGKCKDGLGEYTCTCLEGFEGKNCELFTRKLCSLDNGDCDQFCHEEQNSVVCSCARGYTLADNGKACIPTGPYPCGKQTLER

| IC50 | Structure (SMILES) |
| --- | --- |
| ≤ 100 nM | COc1ccc(-c2ccc(-c3cc(CNC(=O)c4ccc(Cl)s4)on3)cc2)c(CN2CCCC2)c1 [Example 218, 5-Chloro-thiophene-2-carboxylic acid [3-(4′-methoxy-2′-pyrrolidin-1-ylmethyl-biphenyl-4-yl)-isoxazol-5-ylmethyl]-amide] |
| ≥ 500 nM | CCN1CCC(c2cc(CNC(=O)c3ccc(Cl)s3)on2)CC1 [Example 177, 5-Chloro-thiophene-2-carboxylic acid [3-(1-ethyl-piperidin-4-yl)-isoxazol-5-ylmethyl]-amide] |
| ≤ 100 nM | CN1CCN=C1c1ccc(C2=NOC(CNC(=O)c3ccc(Cl)s3)C2)c(N2CCCCCC2)c1 (stereo not drawn) [Example 91, 5-Chloro-thiophene-2-carboxylic acid {3-[2-azepan-1-yl-4-(1-methyl-4,5-dihydro-1H-imidazol-2-yl)-phenyl]-4,5-dihydro-isoxazol-5-ylmethyl}-amide] |
| ≤ 100 nM | CN(C)C(=N)c1ccc(-n2cc(CNC(=O)c3ccc(Cl)s3)nn2)cc1 [Example 313, N-((1-(4-(N,N-Dimethylcarbamimidoyl)phenyl)-1H-1,2,3-triazol-4-yl)methyl)-5-chlorothiophene-2-carboxamide] |
| 100 to 500 nM | O=C(NCc1cc(-c2ccc(C(=O)N3CCCC3)cc2)no1)c1ccc(Cl)s1 [Example 167, 5-Chloro-thiophene-2-carboxylic acid {3-[4-(pyrrolidine-1-carbonyl)-phenyl]-isoxazol-5-ylmethyl}-amide] |
| ≤ 100 nM | CN1CCN=C1c1ccc(-c2noc(CNC(=O)c3ccc(Cl)s3)n2)cc1 [Example 335, 5-Chloro-N-((3-(4-(1-methyl-4,5-dihydro-1H-imidazol-2-yl)phenyl)-1,2,4-oxadiazol-5-yl)methyl)thiophene-2-carboxamide] |
| ≥ 500 nM | O=C(NCC1CC(c2ccc(Br)cc2)=NO1)c1ccc(Cl)s1 (stereo not drawn) [Example 1, 5-Chloro-thiophene-2-carboxylic acid [3-(4-bromo-phenyl)-4,5-dihydro-isoxazol-5-ylmethyl]-amide] |
| ≤ 100 nM | CN1CCN=C1c1ccc(C2=NOC(CNC(=O)c3ccc(Cl)s3)C2)c(OC2CCCC2)c1 (stereo not drawn) [Example 113, 5-Chloro-thiophene-2-carboxylic acid {3-[2-cyclopentyloxy-4-(1-methyl-4,5-dihydro-1H-imidazol-2-yl)-phenyl]-4,5-dihydro-isoxazol-5-ylmethyl}-amide] |
| ≥ 500 nM | O=C(NCc1cc(-c2ccc(Nc3ccccc3)cc2)no1)c1ccc(Cl)s1 [Example 250, 5-Chloro-thiophene-2-carboxylic acid [3-(4-phenylamino-phenyl)-isoxazol-5-ylmethyl]-amide] |
| ≤ 100 nM | CN1CCN(c2cc(-n3ccccc3=O)ccc2-n2cc(CNC(=O)c3ccc(Cl)s3)nn2)CC1 [Example 308, 5-Chloro-N-((1-(2-(4-methylpiperazin-1-yl)-4-(2-oxopyridin-1(2H)-yl)phenyl)-1H-1,2,3-triazol-4-yl)methyl)thiophene-2-carboxamide] |
| ≤ 100 nM | N=C(c1ccc(-c2cccc(CNC(=O)c3ccc(Cl)s3)c2)cc1)N1CCCC1 [Example 382, 5-Chloro-N-((3-(4-(imino(pyrrolidin-1-yl)methyl)phenyl)phenyl)methyl)thiophene-2-carboxamide] |
| ≤ 100 nM | N=C(c1ccc(-c2cc(CNC(=O)c3ccc(Cl)s3)no2)cc1)N1CCCCC1 [Example 333, 5-Chloro-N-((5-(4-(imino(piperidin-1-yl)methyl)phenyl)isoxazol-3-yl)methyl)thiophene-2-carboxamide] |
| ≤ 100 nM | CN1CCN(Cc2ccccc2-c2ccc(C3=NOC(CNC(=O)c4ccc(Cl)s4)C3)cc2)CC1 (stereo not drawn) [Example 199, 5-Chloro-thiophene-2-carboxylic acid {3-[2′-(4-methyl-piperazin-1-ylmethyl)-biphenyl-4-yl]-4,5-dihydro-isoxazol-5-ylmethyl}-amide] |
| ≤ 100 nM | N=C(c1ccc(C2=NOC(CNC(=O)c3ccc(Cl)s3)C2)cc1)N1CCCC1 (stereo not drawn) [Example 10, 5-Chloro-thiophene-2-carboxylic acid {3-[4-(imino-pyrrolidin-1-yl-methyl)-phenyl]-4,5-dihydro-isoxazol-5-ylmethyl}-amide] |
| ≤ 100 nM | C[C@@H](NC(=O)c1ccc(Cl)s1)c1cc(-c2ccc(C(=N)N3CCCC3)cc2)no1 [Example 51, (R)-5-Chloro-thiophene-2-carboxylic acid (1-{3-[4-(imino-pyrrolidin-1-yl-methyl)-phenyl]-isoxazol-5-yl}-ethyl)-amide] |
| 100 to 500 nM | CN1CCN(c2ccc(-n3cc(CNC(=O)c4ccc(Cl)s4)nn3)cn2)CC1 [Example 391, 5-Chloro-N-((1-(6-(4-methylpiperazin-1-yl)pyridin-3-yl)-1H-1,2,3-triazol-4-yl)methyl)thiophene-2-carboxamide] |
| ≥ 500 nM | O=C(NCc1cc(-c2ccc(-c3ccc(CN4CCCC4)cc3)cc2)no1)c1ccc(Cl)s1 [Example 214, 5-Chloro-thiophene-2-carboxylic acid [3-(4′-pyrrolidin-1-ylmethyl-biphenyl-4-yl)-isoxazol-5-ylmethyl]-amide] |

| IC50 | Structure (SMILES) |
| --- | --- |
| ≥ 500 nM | CCN(CC)CCN(C)C(=O)c1ccc(-c2cc(CNC(=O)c3ccc(Cl)s3)on2)cc1 [Example 168, 5-Chloro-thiophene-2-carboxylic acid (3-{4-[(2-diethylamino-ethyl)-methyl-carbamoyl]-phenyl}-isoxazol-5-ylmethyl)-amide] |
| 100 to 500 nM | CN1CCN=C1c1ccc(-c2nc(CNC(=O)c3ccc(Cl)s3)cs2)cc1 [Example 351, 5-Chloro-N-((2-(4-(1-methyl-4,5-dihydro-1H-imidazol-2-yl)phenyl)thiazol-4-yl)methyl)thiophene-2-carboxamide] |
| ≤ 100 nM | C[C@@H](NC(=O)c1ccc(Cl)s1)c1cc(-c2ccc(C3=NCCN3C)cc2)no1 [Example 50, (R)-5-Chloro-thiophene-2-carboxylic acid (1-{3-[4-(1-methyl-4,5-dihydro-1H-imidazol-2-yl)-phenyl]-isoxazol-5-yl}-ethyl)-amide] |
| ≤ 100 nM | CN1CCN=C1c1ccc(-c2cc(CNC(=O)c3ccc(Cl)s3)on2)c(F)c1 [Example 70, 5-Chloro-thiophene-2-carboxylic acid {3-[2-fluoro-4-(1-methyl-4,5-dihydro-1H-imidazol-2-yl)-phenyl]-isoxazol-5-ylmethyl}-amide] |
| ≤ 100 nM | CSc1cc(C2=NCCN2C)ccc1-c1cc(CNC(=O)c2ccc(Cl)s2)on1 [Example 141, 5-Chloro-thiophene-2-carboxylic acid {3-[4-(1-methyl-4,5-dihydro-1H-imidazol-2-yl)-2-methylsulfanyl-phenyl]-isoxazol-5-ylmethyl}-amide] |
| ≤ 100 nM | N=C(c1ccc(-c2cc(CNC(=O)c3ccc(Cl)s3)on2)cc1)N1CCCCC1 [Example 24, 5-Chloro-thiophene-2-carboxylic acid {3-[4-(imino-piperidin-1-yl-methyl)-phenyl]-isoxazol-5-ylmethyl}-amide] |
| ≤ 100 nM | O=C(NCC1CC(c2ccc(C(=O)N3CCCC3)cc2)=NO1)c1ccc(Cl)s1 (stereo not drawn) [Example 164, 5-Chloro-thiophene-2-carboxylic acid {3-[4-(pyrrolidine-1-carbonyl)-phenyl]-4,5-dihydro-isoxazol-5-ylmethyl}-amide] |
| 100 to 500 nM | CN1CCN=C1c1ccc(C2=NOC(CNC(=O)c3ccc(Cl)s3)C2)c(N2CCOCC2)c1 (stereo not drawn) [Example 83, 5-Chloro-thiophene-2-carboxylic acid {3-[4-(1-methyl-4,5-dihydro-1H-imidazol-2-yl)-2-morpholin-4-yl-phenyl]-4,5-dihydro-isoxazol-5-ylmethyl}-amide] |
| 100 to 500 nM | COC[C@H]1CCCN1C(=O)c1ccc(C2=NOC(CNC(=O)c3ccc(Cl)s3)C2)cc1 (stereo partly drawn) [Example 398] |
| ≥ 500 nM | N=C(c1ccc(-c2csc(CNC(=O)c3ccc(Cl)s3)n2)cc1)N1CCCCC1 [Example 363, 5-Chloro-N-((4-(4-(imino(piperidin-1-yl)methyl)phenyl)thiazol-2-yl)methyl)thiophene-2-carboxamide] |
| 100 to 500 nM | O=C(NCC1CC(c2ccc(N3CCSCC3=O)cc2)=NO1)c1ccc(Cl)s1 (stereo not drawn) [Example 244, 5-Chloro-thiophene-2-carboxylic acid {3-[4-(3-oxo-thiomorpholin-4-yl)-phenyl]-4,5-dihydro-isoxazol-5-ylmethyl}-amide] |
| ≥ 500 nM | CC(NC(=O)c1ccc(Cl)s1)c1cc(-c2ccc(C(=N)N(C)C)cc2)no1 (stereo in doubt) [Example 53, (R)-5-Chloro-thiophene-2-carboxylic acid (1-{3-[4-(N,N-dimethyl-carbamimidoyl)-phenyl]-isoxazol-5-yl}-ethyl)-amide] |
| ≤ 100 nM | CCOc1cc(C(=N)N(C)C)ccc1C1=NOC(CNC(=O)c2ccc(Cl)s2)C1 (stereo not drawn) [Example 106, 5-Chloro-thiophene-2-carboxylic acid {3-[4-(N,N-dimethyl-carbamimidoyl)-2-ethoxy-phenyl]-4,5-dihydro-isoxazol-5-ylmethyl}-amide] |
| ≥ 500 nM | CCCN(C)C(=N)c1ccc(-c2cc(CN(C)C(=O)c3ccc(Cl)s3)on2)cc1 [Example 43, 5-Chloro-thiophene-2-carboxylic acid methyl-{3-[4-(N-methyl-N-propyl-carbamimidoyl)-phenyl]-isoxazol-5-ylmethyl}-amide] |
| ≥ 500 nM | CN(C)Cc1cccc(-c2cccc(-c3cc(CNC(=O)c4ccc(Cl)s4)on3)c2)c1 [Example 270, 5-Chloro-thiophene-2-carboxylic acid [3-(3′-dimethylaminomethyl-biphenyl-3-yl)-isoxazol-5-ylmethyl]-amide] |
| 100 to 500 nM | COCCN(C)c1cc(C(=N)N2CCCC2)ccc1C1=NOC(CNC(=O)c2ccc(Cl)s2)C1 (stereo not drawn) [Example 88, 5-Chloro-thiophene-2-carboxylic acid (3-{4-(imino-pyrrolidin-1-yl-methyl)-2-[(2-methoxy-ethyl)-methyl-amino]-phenyl}-4,5-dihydro-isoxazol-5-ylmethyl)-amide] |
